According to patent US6232340A, “Vanadium complexes and derivatives thereof and methods related thereto” (priority 1998, dated 2001):
Entries after “also recorded” stand apart in the source; their conditions may differ.

What was measured:
[1] = tested on: Collagen Induced Arthritis; assay: Treatment of collagen induced arthritis (CIA) with BMOV and NAC; assay type: in vivo, rats
Description: CIA in rats is a model of chronic inflammatory synovitis with pannus formation, neovascularization, and joint destruction similar to rheumatoid arthritis (RA). After immunization with native collagen type II (CII) in incomplete Freund's adjuvant, 90-100% of genetically susceptible rats reliably develop clinical arthritis within 10 to 14 days.
Arthritis is induced in syngeneic 8 week old female Louvain (LOU) rats by intradermal immunization under ether anaesthesia on Day 0 with 0.5 mg native chick collagen II (CII) (Genzyme, Boston, Mass.) solubilized in 0.1M acetic acid and emulsified in incomplete Freund's adjuvant (IFA) (Difco, Detr, Mich.) (D. E. Trentham et al., J. Exp. Med. 146:857-868, 1977). Onset of clinical arthritis typically develops in 90-100% of control rats 10-12 days post CII immunization.
On day 10 post immunization, arthritis-induced rats are randomized into two groups. Control rats (n=10) receive only an aqueous vehicle at a dose of 100 mg/kg/day s.c. The experimental group (n=10) receives an aqueous vehicle at 100 mg/kg/day s.c., as well as O[BEOV]2 subcutaneously at the appropriate dose.
The severity of clinical arthritis in each limb is scored daily based on an objective integer scale of 0-4 (D. E. Trentham et al., J. Exp. Med. 146:857-868, 1977). A score of 0 indicates an unaffected limb, while a score of 4 represents fulminant erythema and edema involving distal digits. The arthritic index is defined as the sum of its four limb scores. Since CIA typically involves only the hind limbs, an arthritic index of 6 to 8 is considered to represent severe arthritis.
At the end of the study (Day 18-post arthritis onset), hind limb radiographs are obtained. An investigator blinded to the treatment protocol assigns a score to each limb, based on the degree of soft tissue swelling, joint space narrowing, periosteal new bone information, and the presence of erosions and ankylosis (0=normal; 3=maximal joint destruction). The radiographic index is defined as the sum of the limbs.
The humoral immunity is evaluated by collecting rat serum on Day 18 post arthritis onset for measuring anti-CII IgG by an enzyme linked immunosorbent assay (ELISA) (E. Brahn and D. E. Trentham, Cell Immunol. 86:421-428, 1984; E. Brahn and D. E. Trentham, Cell Immunol. 118:491-503, 1989). Antibody titers are normalized against a previously standardised curve and absorbance read at 490 nm at a serum dilution of 1:2500.
Synovium is selected from rats on Day 5 and Day 18-post arthritis onset to study joint morphology using electron microscopy. On Day 18-post arthritis onset, one ankle joint of each arthritic control and O[BEOV]2 -treated rat is removed, critical point dried, and gold sputter-coated for scanning electron microscopy to examine the trochlear surfaces. Conventional transmission electron microscopy is also performed on the articular cartilage of the trochlear surfaces of native, arthritic control, and O[BEOV]2 -treated animals.

collagenase = assay: Northern blot, synovial collagenase expression in CIA rats; assay type: in vivo; conditions: vs control group
Description: (§1) Collagenase, stromelysin, and IL-1 mRNA were readily detected in the vehicle control group. When normalized for RNA loading, expression of all three genes was decreased in the animals in the BMOV-treated group compared to the control group.

IL-1 = assay: Northern blot, synovial IL-1 expression in CIA rats; assay type: in vivo; conditions: vs control group
Description: as §1

stromelysin = assay: Northern blot, synovial stromelysin expression in CIA rats; assay type: in vivo; conditions: vs control group
Description: as §1

MDAY-D2 tumors = assay: Tumor efficacy on MDAY-D2 tumors in DBA-2 mice (Example 36); assay type: in vivo, murine tumor cells in DBA-2 mice
Description: The protocol used is as follows. 10 DBA-2 mice were randomly divided into 2 groups. Groups were treated as follows. […] Vehicle (isotonic phosphate buffer) was filtered through 0.22 μm sterile filter (Costar 140666).
(§2) The groups were as follows:
(§3) 1) Vehicle control: isotonic phosphate buffer. 300 μl/dose, total of 600 μl/day.
(§4) Treatment continued for a total of nine days. Mice were terminated on day 10 with carbon dioxide. Tumors were removed and weighed following blotting.

[2] = isotonic phosphate buffered saline
[3] = Maximum Tolerated Dose study, s.c. b.i.d. for nine days in DBA-2 mice (Example 33); assay type: in vivo, female mice (DBA-2)
Description: A Maximum Tolerated Dose (M.T.D.) study was undertaken to determine a safe tolerable dose for administration of OHBEOV through a parenteral (s.c.) route of administration delivered twice daily (b.i.d.) for nine days in female mice (DBA-2). The protocol was as follows. 14 DBA-2 mice were randomly divided into groups of 2 for a total of 7 groups. Groups were treated as follows. Vehicle (sterile isotonic phosphate buffer, pH 7.2) was filtered through 0.22 pm sterile filter (Costar 140666). OHBEOV was dissolved with gentle heating and stirring for about 20 min.
(§5) 1) Vehicle control: 300 μl/dose for a total of 600 μl/day.
7) 300 μl of 2 mg/mL OHBEOV to be injected for a total of 1200 μg/day.
(§6) Mice were weighed as a group (N=2) prior to injection in the morning. […] Treatment continued for a total of nine days. Groups were observed and weighed daily for 2 weeks following the final treatment and observed for behavioral signs of toxicity i.e. reduced preening, and mobility and organ failure, i.e., weight loss, death. Following this period, mice were terminated with carbon dioxide. Liver, spleen and kidney (and other organs) were weighed and kept for histology if appearance appeared abnormal.

[4] = tested on: H460 (human non-small cell lung cancer); assay: Efficacy on H460 human non-small cell lung cancer xenograft in SCID-RAG-2 mice (Example 37); assay type: in vivo, human tumor cells in SCID-RAG-2 female mice; conditions: for tumor size reduction (caliper volumes) / reduction of tumor weight relative to control: 500 μg/dose s.c. b.i.d., 9 days; for tumor size reduction (caliper volumes): vs control; for reduction of tumor weight relative to control: day 10
Description: A study was undertaken to confirm the efficacy of OHBEOV and O[BEOV]2 using SCID-RAG-2 female mice with implanted human H460 tumors (lung cancer). […] The protocol used was as follows. 15 SKID-RAG-2 mice were randomly divided into 3 groups. Groups were treated as follows. […] Vehicle (isotonic phosphate buffer) was filtered through 0.22 pm sterile filter (Costar 140666).
as §2, §3, §4

[5] = Maximum Tolerated Dose study, i.v. b.i.d. for nine days in DBA-2 mice (Example 34); assay type: in vivo, female mice (DBA-2)
Description: A Maximum Tolerated Dose (M.T.D.) study was undertaken to determine a safe tolerable dose for administration of OHBEOV through an intravenous route of administration delivered twice daily for nine days in female mice (DBA-2). The protocol was as follows. 8 DBA-2 female mice were randomly divided into groups of 2 for a total of 4 groups. Groups were treated as follows. Vehicle (sterile isotonic phosphate buffer, pH 7.2) was filtered through 0.22 μm sterile filter (Costar 140666).
as §5
as §6, with “toxicity, i.e.,” for “toxicity i.e.”, “organs)” for “organs) were”

[6] = tested on: H460 human non-small cell lung cancer
Description: The purpose was to establish safe efficacious levels of s.c., b.i.d. administration of OHBEOV for 9 days. The protocol used is as follows. 20 female Scid/Rag-2 mice were randomly divided into 4 groups. Groups were treated as follows. H460 tumor cells were inoculated (50 μl 10^6 cells bilaterally in the posterior dorsal region) as discussed earlier. On day 11 following tumor inoculation, the 9 day treatment began. Vehicle (isotonic phosphate buffer) filtered through 0.22 μm sterile filter (Costar 14066).
Mice were weighed as a group prior to injection in the morning. Injections were s.c. in the neck region distal to the tumor sight and were delivered b.i.d. between 8-9 a.m. and between 4-5 p.m. Tumor volumes were estimated on a daily basis from measurements taken with calipers.

[7] = Plasma glucose levels following acute and b.i.d. dosing (insulin mimetic effect); assay type: in vivo
[8] = tested on: drug resistant cell lines; conditions: previous studies; cited from earlier work
non-proliferating cells = conditions: previous studies; cited from earlier work
synoviocytes = conditions: previously shown; cited from earlier work
proliferating cells = conditions: previous studies; cited from earlier work
[9] = xenograft model of human lung cancer

Compound: Cc1occc(=O)c1[O-].Cc1occc(=O)c1[O-].[O]=[V+2] [BMOV, Bis(maltolato)oxovanadium(IV)]
- diarrhoea ([1]; 10 mg/kg/day): not observed
- diarrhoea ([1]; 15 mg/kg/day on Day 11 post arthritis onset): minor diarrhoea
- cartilage damage (scanning and transmission electron micrographs) ([1]; joints vs control): little cartilage damage and intact cartilage
- trochlear surface of articular cartilage ([1]; vs control rats): normal trochlear surface
- articular cartilage ultrastructure (transmission electron micrographs) ([1]; vs native animal): indistinguishable from the native animal
- inhibition of collagenase gene expression (collagenase; normalized for RNA loading): 78%
- synovial expression of collagenase (collagenase): reduced
- inhibition of IL-1 gene expression (IL-1; printed "IL-In", normalized for RNA loading): 85%
- synovial expression of IL-1 (IL-1): to a lesser degree, IL-1, were reduced
- inhibition of stromelysin gene expression (stromelysin; normalized for RNA loading): 58%
- synovial expression of stromelysin (stromelysin): reduced

Compound: CC(=O)N[C@@H](CS)C(=O)O [NAC]
- arthritis severity ([1]; NAC alone): developed severe arthritis; also recorded: no appreciable effect on the clinical severity of CIA

Compound: CCc1occc(=O)c1[O][V](=[O])([OH])[O]c1c(CC)occc1=O [OHBEOV, Bis(2-ethyl-3-hydroxy-4-pyronato)hydroxyoxovanadium(V)]
- tumor size reduction (caliper volumes) (MDAY-D2 tumors; 500 μg/dose s.c. b.i.d., 9 days, vs control): significant reduction in tumor size
- reduction of tumor weight relative to control (MDAY-D2 tumors; 500 μg/dose s.c. b.i.d., 9 days, day 10): approximately 70%
- tumor efficacy (MDAY-D2 tumors; murine solid tumor model at maximum tolerated dose, s.c. b.i.d. 9 days): significant tumor efficacy was demonstrated
- maximum solubility [2]: 6000 µg/mL
- spleen appearance upon necropsy ([3]; 600 μg/dose s.c., visual inspection): enlarged
- maximum tolerated dose ([3]; b.i.d., s.c. for 9 days): 500 µg/day
- weight loss ([3]; doses up to and including 500 μg (1000 μg/day) s.c., 9 day treatment and 14 day follow up): less than 15%
- weight loss of one animal terminated ([3]; maximum dose of 600 μg s.c.): 25%
- tolerability (doses up to and including) ([3]; per dose, s.c. b.i.d., 9 days, well tolerated): 500 µg
- weight recovery following termination of treatment ([3]; s.c.): all animals regained their original weight
- skin lesions at the injection site ([3]; s.c., higher doses): some skin lesions were noted
- weight loss ([3]; treatment protocol and dose level used to demonstrate tumor efficacy): less than 15%
- tumor size reduction (caliper volumes) [4]: significant reduction in tumor size
- reduction of tumor weight relative to control [4]: approximately 70%
- tumor efficacy ([4]; human lung cancer xenograft at maximum tolerated dose, s.c. b.i.d. 9 days): significant tumor efficacy was demonstrated
- weight loss ([5]; doses up to and including 300 μg (600 μg/day) i.v., 9 day treatment and 14 day follow up): less than 15%
- weight recovery following termination of treatment ([5]; i.v.): all animals regained their original weight
- tolerability (doses up to and including) ([5]; per dose, i.v. b.i.d., 9 days, well tolerated): 300 µg
- dose-response of mean tumor weight ([6]; 600-1000 μg/day s.c., day 10): dose-response relationship
- correlation of tumor vanadium with tumor size and dose ([6]; atomic absorption spectroscopy, end of study): strongly correlated
- myelosuppression ([6]; in vivo): no evidence of myelosuppression
- plasma leukocyte count / immune response ([6]; in vivo): no significant changes in plasma leukocyte count
- anti-tumor activity [6, 9]: significant dose-dependent anti-tumor activity
- final tumor size reduction [6, 9]: approximately 70%
- plasma glucose levels following dosing ([7]; acute and b.i.d. dosing): decreased following dosing
- plasma glucose level (normoglycemic range) ([7]; following dosing, non-diabetic animals): 4 mM
- time for plasma glucose to return to pre-dosing levels ([7]; single and multiple b.i.d. dosing): ≤ 1 h

Compound: [O]=[V]([O-])([O-])[O-] [orthovanadate]
- toxicity to drug resistant cell lines [8]: equally toxic to all the drug resistant cell lines
- effect on non-proliferating cells (non-proliferating cells): did not affect the non-proliferating cells
- cytotoxicity to synoviocytes (synoviocytes): cytotoxic to the cells
- synoviocyte proliferation (synoviocytes): inhibited synoviocyte proliferation
- effect on proliferating cells (proliferating cells): toxic to proliferating cells

Compound: O=S(=O)([O-])[O-].[O]=[V+2] [vanadyl sulphate]
- cytotoxicity to synoviocytes (synoviocytes): cytotoxic to the cells
- synoviocyte proliferation (synoviocytes): inhibited synoviocyte proliferation

Compound: μ-Oxobis[bis(2-ethyl-3-hydroxy-4-pyronato)oxovanadium(V)] [O[BEOV]2]
- tumor size reduction (caliper volumes) [4]: significant reduction in tumor size
- reduction of tumor weight relative to control [4]: approximately 70%
